# Assay results from ChEMBL document CHEMBL1201862, “PubChem BioAssay data set” (2004).
# Activity calls are given as the source filed them.
# How the values were obtained:
# Streptococcus = test: GAS UMAA2166 growth inhibition – luminescence, BacTiterGlo, counter-screen for streptokinase expression inhibitor project, dose response (AID 1915); type: functional, organism-based;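 further: potency for reduction of bacterial viability or growth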
# [1] = NIH3T3 cell viability loss – ATP luminescence, mouse fibroblasts, counter-screen, dose response (AID 2010); type: functional, cell-based;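 further: cells exposed to compound for about 90 hours before reading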
# cells [2] = type: functional, cell-based
# [3] = Trypanosoma cruzi growth suppression in host cells – NIH3T3 host cells, beta-gal luminescence, confirmation (AID 2044); type: functional, cell-based;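 further: intracellular parasites grown in NIH/3T3 mouse fibroblasts as host cells; luminescent beta-galactosidase reporter signal from transgenic T. cruzi replicating inside host cells; inhibitors lower the luminescence signal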
# INS1 = test: INS-1E survival protection against cytokine death – cell-based, luminescence, retest, dose response (AID 449756); type: functional; conditions: Rattus norvegicus;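 further: cell death triggered by IL-1 beta plus TNF-alpha plus IFN-gamma mixture; protective hits raise ATP signal compared with cytokine alone wells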
# Exodeoxyribonuclease V = target: T1, Exodeoxyribonuclease V (Escherichia coli (strain K12), UniProt P04993+P07648+P08394); test: RecBCD inhibition via phage-restricted bacterial growth – absorbance, V66 E. coli, mutant T4 phage, counter-screen for AddAB inhibitor project, dose response (AID 492957); type: functional, cell-based, Escherichia coli str. K-12 substr. MG1655
# T1 sequence (P04993 whole entry): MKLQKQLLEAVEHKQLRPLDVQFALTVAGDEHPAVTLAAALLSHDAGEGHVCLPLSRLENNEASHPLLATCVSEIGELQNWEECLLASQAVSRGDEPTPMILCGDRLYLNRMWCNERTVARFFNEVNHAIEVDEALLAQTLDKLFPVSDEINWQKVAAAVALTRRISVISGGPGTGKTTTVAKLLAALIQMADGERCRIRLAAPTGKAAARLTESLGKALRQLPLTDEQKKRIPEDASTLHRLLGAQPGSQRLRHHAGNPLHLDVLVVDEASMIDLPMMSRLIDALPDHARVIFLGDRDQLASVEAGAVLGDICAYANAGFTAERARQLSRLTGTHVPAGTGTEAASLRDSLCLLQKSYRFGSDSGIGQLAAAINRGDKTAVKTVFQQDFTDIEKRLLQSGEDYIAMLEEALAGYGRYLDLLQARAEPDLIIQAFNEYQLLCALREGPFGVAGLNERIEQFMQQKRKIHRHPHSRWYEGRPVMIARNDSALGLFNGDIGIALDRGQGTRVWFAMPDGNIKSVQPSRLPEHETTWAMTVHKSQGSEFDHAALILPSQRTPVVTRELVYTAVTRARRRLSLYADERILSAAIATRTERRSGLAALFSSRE
# T1 sequence (P07648 whole entry): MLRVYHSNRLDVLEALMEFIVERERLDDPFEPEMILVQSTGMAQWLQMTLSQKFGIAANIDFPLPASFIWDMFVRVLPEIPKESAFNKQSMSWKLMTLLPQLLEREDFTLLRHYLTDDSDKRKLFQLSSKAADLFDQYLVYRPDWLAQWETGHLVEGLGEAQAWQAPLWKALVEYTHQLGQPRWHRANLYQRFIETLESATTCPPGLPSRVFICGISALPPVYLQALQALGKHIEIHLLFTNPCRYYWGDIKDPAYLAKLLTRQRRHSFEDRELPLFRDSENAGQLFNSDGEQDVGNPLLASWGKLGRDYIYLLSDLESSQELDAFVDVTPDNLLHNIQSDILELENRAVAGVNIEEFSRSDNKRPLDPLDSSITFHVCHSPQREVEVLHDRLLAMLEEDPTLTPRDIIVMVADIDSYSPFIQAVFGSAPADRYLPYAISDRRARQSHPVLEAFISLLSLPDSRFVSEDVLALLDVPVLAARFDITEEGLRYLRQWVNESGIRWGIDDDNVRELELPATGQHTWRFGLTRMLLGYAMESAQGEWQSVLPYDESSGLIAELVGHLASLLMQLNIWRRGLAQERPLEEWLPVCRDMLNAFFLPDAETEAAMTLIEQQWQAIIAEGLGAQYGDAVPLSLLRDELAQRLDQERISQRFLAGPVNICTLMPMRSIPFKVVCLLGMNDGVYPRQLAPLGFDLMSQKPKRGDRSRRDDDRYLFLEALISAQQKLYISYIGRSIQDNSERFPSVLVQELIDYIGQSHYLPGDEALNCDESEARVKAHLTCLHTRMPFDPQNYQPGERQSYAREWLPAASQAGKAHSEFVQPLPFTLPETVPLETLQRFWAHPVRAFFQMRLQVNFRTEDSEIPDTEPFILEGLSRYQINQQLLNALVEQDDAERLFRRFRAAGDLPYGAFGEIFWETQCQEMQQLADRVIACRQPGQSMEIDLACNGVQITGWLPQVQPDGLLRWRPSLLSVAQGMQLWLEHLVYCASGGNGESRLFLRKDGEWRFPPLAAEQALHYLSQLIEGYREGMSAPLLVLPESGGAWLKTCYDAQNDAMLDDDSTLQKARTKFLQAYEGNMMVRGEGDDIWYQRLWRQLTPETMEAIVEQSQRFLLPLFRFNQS
# T1 sequence (P08394 whole entry): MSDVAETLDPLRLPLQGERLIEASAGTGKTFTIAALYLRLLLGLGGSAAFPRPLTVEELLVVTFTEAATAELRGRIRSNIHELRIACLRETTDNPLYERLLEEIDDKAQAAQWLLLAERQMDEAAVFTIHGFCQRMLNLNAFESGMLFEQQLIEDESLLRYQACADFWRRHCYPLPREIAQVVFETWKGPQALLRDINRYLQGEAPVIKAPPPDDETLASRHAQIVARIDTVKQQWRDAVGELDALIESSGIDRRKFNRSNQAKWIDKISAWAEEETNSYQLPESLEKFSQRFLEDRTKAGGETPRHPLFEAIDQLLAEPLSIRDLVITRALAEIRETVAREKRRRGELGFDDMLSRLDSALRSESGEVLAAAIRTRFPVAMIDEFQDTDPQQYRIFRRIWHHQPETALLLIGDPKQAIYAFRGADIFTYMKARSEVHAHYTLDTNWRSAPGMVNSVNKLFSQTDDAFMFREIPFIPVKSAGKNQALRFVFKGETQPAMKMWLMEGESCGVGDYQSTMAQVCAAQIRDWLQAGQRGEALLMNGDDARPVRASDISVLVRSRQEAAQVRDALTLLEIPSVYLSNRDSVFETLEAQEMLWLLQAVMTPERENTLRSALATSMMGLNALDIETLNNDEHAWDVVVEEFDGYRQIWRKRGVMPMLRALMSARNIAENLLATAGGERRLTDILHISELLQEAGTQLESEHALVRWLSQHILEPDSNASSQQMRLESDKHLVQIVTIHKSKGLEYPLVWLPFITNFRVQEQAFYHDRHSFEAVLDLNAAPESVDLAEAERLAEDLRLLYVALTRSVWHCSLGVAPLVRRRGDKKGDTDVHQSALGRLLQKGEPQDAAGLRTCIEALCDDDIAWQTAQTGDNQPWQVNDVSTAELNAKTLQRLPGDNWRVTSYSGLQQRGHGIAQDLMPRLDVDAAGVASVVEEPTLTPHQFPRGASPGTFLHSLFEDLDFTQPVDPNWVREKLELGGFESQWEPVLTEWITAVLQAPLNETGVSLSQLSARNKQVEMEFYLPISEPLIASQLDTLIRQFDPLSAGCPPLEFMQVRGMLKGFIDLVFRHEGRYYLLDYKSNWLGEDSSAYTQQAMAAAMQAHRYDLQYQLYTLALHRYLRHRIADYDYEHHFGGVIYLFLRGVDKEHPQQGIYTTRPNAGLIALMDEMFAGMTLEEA
# [4] = Counterscreen for AddAB inhibitors: absorbance-based bacterial cell-based high throughput dose response assay for inhibitors of bacterial viability. [Related pubchem assays (depositor defined):AID435030, AID449728, AID449731, AID488942, AID488955, AID488956]; type: functional
# [5] = target: Heat shock protein HSP 90-alpha (Homo sapiens, UniProt P07900); type: functional, organism-based
# cells [6] = type: functional, cell-based; remark: listed apart in the source
# [7] = test system: Streptococcus sp. 'group A'; test: Streptococcus pyogenes SK(-)GAS viability under kanamycin – luminescence, BacTiterGlo, confirmation, counter-screen for streptokinase expression inhibitor project, dose response (AID 1900); type: functional, organism-based
# [8] = Luminescence Cell-Based Dose Retest to Confirm Inhibitors of Cancer Stem Cells. [Related pubchem assays (depositor defined):AID2717, AID2721]; type: functional; conditions: Homo sapiens
# HEK293 [9] = test: inhibition of NOD1-driven NF-kB reporter – cell-based, luminescence, uHTS, primary screen (AID 1578); type: functional; conditions: Homo sapiens
# [10] = target: T2, Short transient receptor potential channel 4 (Mus musculus, UniProt Q9QUQ5); test: block of DAMGO-driven TRPC4 calcium entry – cell-based, HEK293 TRPC4/mu-opioid, Fluo-4 calcium, dose response (AID 434942); type: functional;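 further: potency of inhibitors blocking the TRPC4 calcium response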
# T2 sequence (Q9QUQ5 whole entry): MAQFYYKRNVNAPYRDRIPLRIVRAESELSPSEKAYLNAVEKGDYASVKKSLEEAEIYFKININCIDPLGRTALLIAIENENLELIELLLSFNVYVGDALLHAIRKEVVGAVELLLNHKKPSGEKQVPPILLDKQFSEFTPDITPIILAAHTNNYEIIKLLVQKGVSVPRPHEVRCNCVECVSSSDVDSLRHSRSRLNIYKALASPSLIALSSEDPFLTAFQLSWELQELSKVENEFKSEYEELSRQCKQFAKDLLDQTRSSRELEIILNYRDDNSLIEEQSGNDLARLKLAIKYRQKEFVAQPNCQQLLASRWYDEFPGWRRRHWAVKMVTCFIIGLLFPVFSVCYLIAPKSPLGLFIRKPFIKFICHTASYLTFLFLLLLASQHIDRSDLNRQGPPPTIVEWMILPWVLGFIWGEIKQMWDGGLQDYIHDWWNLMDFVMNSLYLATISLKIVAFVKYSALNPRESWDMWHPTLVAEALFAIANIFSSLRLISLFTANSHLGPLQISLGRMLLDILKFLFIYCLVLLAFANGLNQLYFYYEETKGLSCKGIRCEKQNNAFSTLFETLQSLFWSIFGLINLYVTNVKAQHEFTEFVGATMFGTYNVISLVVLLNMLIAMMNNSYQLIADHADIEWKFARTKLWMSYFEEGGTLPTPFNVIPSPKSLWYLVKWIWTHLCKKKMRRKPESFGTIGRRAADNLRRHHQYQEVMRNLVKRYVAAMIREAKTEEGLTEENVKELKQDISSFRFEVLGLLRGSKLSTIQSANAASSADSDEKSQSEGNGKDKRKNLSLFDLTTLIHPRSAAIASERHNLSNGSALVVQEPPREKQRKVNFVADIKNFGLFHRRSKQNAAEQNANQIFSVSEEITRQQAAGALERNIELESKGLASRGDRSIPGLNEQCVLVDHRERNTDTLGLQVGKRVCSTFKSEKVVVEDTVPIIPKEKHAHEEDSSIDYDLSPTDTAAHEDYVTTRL
# HEK293 [11] = test: NOD2 signaling inhibitors in MDP-stimulated cells, cell-based, uHTS, luminescence (AID 2001); type: functional; conditions: Homo sapiens
# HEK293 [12] = test: cells; type: functional, cell-based; conditions: Homo sapiens
# HEK293 [13] = test: cells; type: functional, cell-based; conditions: Homo sapiens; remark: listed apart in the source
# [14] = target: Nucleotide-binding oligomerization domain-containing protein 2 (Homo sapiens, UniProt Q9HC29); test: inhibition of NOD2-driven NF-kB reporter – cell-based, luminescence, uHTS, HEK293 (AID 1566); type: functional
# Sequence of Nucleotide-binding oligomerization domain-containing protein 2 (Q9HC29 whole entry, the tested form may be a part): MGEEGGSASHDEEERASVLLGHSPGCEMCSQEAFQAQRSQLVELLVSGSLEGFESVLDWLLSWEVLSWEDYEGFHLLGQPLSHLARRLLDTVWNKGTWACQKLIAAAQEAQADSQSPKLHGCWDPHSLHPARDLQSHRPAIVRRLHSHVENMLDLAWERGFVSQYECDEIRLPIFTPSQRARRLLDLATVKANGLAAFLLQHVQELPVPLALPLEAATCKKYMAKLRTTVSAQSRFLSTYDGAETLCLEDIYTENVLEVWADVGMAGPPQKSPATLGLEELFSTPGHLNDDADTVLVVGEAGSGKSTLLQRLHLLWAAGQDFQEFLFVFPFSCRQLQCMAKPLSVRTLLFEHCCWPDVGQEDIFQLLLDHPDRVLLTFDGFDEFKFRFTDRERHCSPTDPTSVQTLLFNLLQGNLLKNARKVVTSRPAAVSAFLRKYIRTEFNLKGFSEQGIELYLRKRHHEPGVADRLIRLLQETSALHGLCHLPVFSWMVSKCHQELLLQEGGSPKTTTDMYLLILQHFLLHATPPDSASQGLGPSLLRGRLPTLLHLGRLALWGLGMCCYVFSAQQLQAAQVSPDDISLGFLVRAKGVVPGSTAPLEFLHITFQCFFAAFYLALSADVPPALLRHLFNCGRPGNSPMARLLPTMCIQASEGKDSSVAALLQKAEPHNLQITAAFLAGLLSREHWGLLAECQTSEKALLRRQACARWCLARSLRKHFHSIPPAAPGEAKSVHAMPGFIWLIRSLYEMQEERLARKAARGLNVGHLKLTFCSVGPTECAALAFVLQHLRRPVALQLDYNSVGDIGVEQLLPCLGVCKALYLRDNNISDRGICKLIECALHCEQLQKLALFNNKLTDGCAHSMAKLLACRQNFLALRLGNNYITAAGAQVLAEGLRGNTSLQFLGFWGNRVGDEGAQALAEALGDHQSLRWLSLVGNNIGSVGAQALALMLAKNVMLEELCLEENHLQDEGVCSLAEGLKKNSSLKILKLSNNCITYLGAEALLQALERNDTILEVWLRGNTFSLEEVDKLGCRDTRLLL
# HEK293 [15] = test: cells; type: functional, cell-based; conditions: Homo sapiens; remark: listed apart in the source
# [16] = target: T3, Carboxy-terminal domain RNA polymerase II polypeptide A small phosphatase 1 (Homo sapiens, UniProt Q9GZU7); test: CTDSP1 inhibitors, concentration-response, biochemical, absorbance readout, ultra-high-throughput screen actives (AID 540297); type: functional
# T3 sequence (Q9GZU7 whole entry): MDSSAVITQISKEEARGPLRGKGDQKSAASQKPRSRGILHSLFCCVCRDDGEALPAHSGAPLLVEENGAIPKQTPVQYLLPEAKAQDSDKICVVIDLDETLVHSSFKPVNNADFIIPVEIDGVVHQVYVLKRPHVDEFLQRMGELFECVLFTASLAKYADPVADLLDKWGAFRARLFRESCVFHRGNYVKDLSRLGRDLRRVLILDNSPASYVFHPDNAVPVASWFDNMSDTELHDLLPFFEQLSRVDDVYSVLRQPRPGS
Compound,IC50 (Exodeoxyribonuclease V),IC50 [4],EC50 (HEK293 [9]),IC50 (HEK293 [11]),IC50 (HEK293 [12]),IC50 (HEK293 [13]),EC50 [14],IC50 (HEK293 [15]),also measured
CCCC(=O)NC(c1ccc2c(c1)OCO2)c1cc(Cl)c2cccnc2c1O (centres undefined),> 119 µM (inactive),> 119 µM (inactive),–,–,–,–,–,–,EC50 (Streptococcus): 7.69 µM (active); EC50 [1]: 2.21 µM (active); EC50 (cells [2]): 47.7 µM (active); EC50 [3]: 0.912 µM (active); AC50 (INS1): 1.03 µM (active); AC50 [5]: 3.41 µM (active); EC50 (cells [6]): > 350 µM (not active); EC50 [7]: 4.09 µM (active); AC50 [8]: 3.06 µM (active)
Cc1nc(N2CCN(c3ccccn3)CC2)c2c(C)c(C(=O)N3CCN(c4ccccc4F)CC3)sc2n1,–,–,6.4 µM (active),7.16 µM (inactive),6.62 µM (active),> 20 µM (inactive),5.07 µM (active),11 µM (active),EC50 [10]: 1.68 µM (active)
Cc1c(Cl)cccc1N=C(S)NCc1ccccc1Cl,> 119 µM (inactive),> 119 µM (inactive),–,–,–,–,–,–,–
CCS(=O)(=O)C1=NN2C(=N)/C(=C\c3ccc(OCCOc4cccc(OC)c4)c(OC)c3)C(=O)N=C2S1,–,–,> 20 µM (inactive),> 20 µM (inactive),> 20 µM (inactive),> 20 µM (inactive),3.32 µM (active),> 20 µM (inactive),IC50 [16]: 4.26 µM (active)
CSc1nc(N)nc2c1ncn2CC(=O)Nc1ccc(C)c(C)c1,> 118 µM (inactive),> 118 µM (inactive),–,–,–,–,–,–,–
